Test results published in patent publication EP1595878A1, “INDOLE DERIVATIVES WITH APOPTOSIS INDUCING ACTIVITY” (Zentaris GmbH, priority 2004, dated 2005).
Values after ≈ are worked out from the molar mass of the structure shown. Read-outs that look alike come from different tables or passages of the source.

Experiments:
KB/HeLa Zellen = assay: Cell cycle analysis (G2/M arrest); assay type: cell-based; settings: Homo sapiens, read-out: EC50 in nM (50% cells in G2/M)
From the text: Der Zellzyklus umfasst die Entwicklung der Zelle von einer Zellgeneration zur nächsten.
Während der Ruhephase (G0) und präsynthetischen Phase (G1) besitzt die Zelle einen diploiden Chromosomensatz (2c). In der Synthesephase (S) wird die DNA-Menge durch Replikation vermehrt. Die S-Phase endet mit Erreichen der prämitotischen Phase (G2M), in der die Zelle einen reduplizierten Chromosomenbestand (4c) und verdoppelten DNA-Gehalt aufweist. In der nachfolgenden, kurzdauernden Mitosephase (M) kommt es zur gleichmäßigen Aufteilung der reduplizierten Chromosomen auf zwei Tochterzellen, die dann jeweils wieder einen diploiden DNA Gehalt zeigen und sich in der G01-Phase befinden, so daß der Zellzyklus neu beginnen kann.
Für die Zellzyklusanalyse wurden KB/HeLa Zellen mit den Testsubstanzen in unterschiedlichen Konzentrationen (0.1-1000 nM) 24 Stunden bei 37°C behandelt.
Der prozentuale Anteil der in der G2/M Phase des Zellzyklus arrettierten Zellen nach Behandlung mit Referenz- oder ausgewählten Testsubstanzen ist in der nachfolgenden Tabelle 4 dargestellt. Die Ergebnisse wurden mit einer speziellen Analysesoftware (ModFit™) ausgewertet.

LT12/mdr = assay: XTT proliferation assay, resistant LT12/mdr; assay type: cell-based; settings: Rattus norvegicus
From the text: (§1) Die Substanzen 1, 2, 4, 9, 11, 12 , 13 und 15 wurden in einem Proliferationstest an etablierten Tumorzelllinien auf ihre anti-proliferative Aktivität hin untersucht (D.A. Scuderio et al. Cancer Res. 1988, 48, 4827-4833). Der verwendete Test bestimmt die zelluläre Dehydrogenase-Aktivität und ermöglicht eine Bestimmung der Zellvitalität und indirekt der Zellzahl. Bei den verwendeten Zelllinien handelt es sich um die humane Cervixkarzinom Zelllinie KB/HeLa (ATCC CCL17), die ovariale Adenokarzinomzelllinie SKOV-3 (ATCC HTB77), die humane Glioblastom Zelllinie SF-268 (NCI 503138) und die Lungenkarzinom Zelllinie NCI-H460 (NCI 503473). Tabelle 1:
(§2) Zur weiteren Charakterisierung wurden die Substanzen 1, 2, 4 und 11 gegenüber multi drug resistenten Zelllinien im Vergleich zu den nicht-resistenten Wildtypzelllinien untersucht.
(§3) Bei den untersuchten Zelllinien handelt es sich um die murine L1210, die akute myeloische Leukaemie Zelllinie LT12 und um die resistenten Linien L1210/mdr und LT12/mdr. Außerdem wurden die murine P388 Zelllinie (methyl-cholanthreneinduced lymphoid neoplasm) sowie die Doxorubicin-resistente P388 als Testsysteme herangezogen.

[1] = tested on: Doxorubicin-resistente P388; assay: XTT proliferation assay, doxorubicin-resistant P388; assay type: cell-based, murine; settings: Mus musculus
From the text: as §1, §2, §3

L1210VCR = assay: XTT proliferation assay, resistant L1210; assay type: cell-based, murine; settings: Mus musculus
From the text: as §1, §2, §3

[2] = biological target: humaner DNA-Topoisomerase II (Homo sapiens, UniProt P11388); assay: kDNA decatenation assay for topoisomerase II activity; assay type: biochemical; settings: compound 1 at 100, 31.6 and 10 µM; reference compounds at 100 µM
Sequence of humaner DNA-Topoisomerase II (P11388 whole entry): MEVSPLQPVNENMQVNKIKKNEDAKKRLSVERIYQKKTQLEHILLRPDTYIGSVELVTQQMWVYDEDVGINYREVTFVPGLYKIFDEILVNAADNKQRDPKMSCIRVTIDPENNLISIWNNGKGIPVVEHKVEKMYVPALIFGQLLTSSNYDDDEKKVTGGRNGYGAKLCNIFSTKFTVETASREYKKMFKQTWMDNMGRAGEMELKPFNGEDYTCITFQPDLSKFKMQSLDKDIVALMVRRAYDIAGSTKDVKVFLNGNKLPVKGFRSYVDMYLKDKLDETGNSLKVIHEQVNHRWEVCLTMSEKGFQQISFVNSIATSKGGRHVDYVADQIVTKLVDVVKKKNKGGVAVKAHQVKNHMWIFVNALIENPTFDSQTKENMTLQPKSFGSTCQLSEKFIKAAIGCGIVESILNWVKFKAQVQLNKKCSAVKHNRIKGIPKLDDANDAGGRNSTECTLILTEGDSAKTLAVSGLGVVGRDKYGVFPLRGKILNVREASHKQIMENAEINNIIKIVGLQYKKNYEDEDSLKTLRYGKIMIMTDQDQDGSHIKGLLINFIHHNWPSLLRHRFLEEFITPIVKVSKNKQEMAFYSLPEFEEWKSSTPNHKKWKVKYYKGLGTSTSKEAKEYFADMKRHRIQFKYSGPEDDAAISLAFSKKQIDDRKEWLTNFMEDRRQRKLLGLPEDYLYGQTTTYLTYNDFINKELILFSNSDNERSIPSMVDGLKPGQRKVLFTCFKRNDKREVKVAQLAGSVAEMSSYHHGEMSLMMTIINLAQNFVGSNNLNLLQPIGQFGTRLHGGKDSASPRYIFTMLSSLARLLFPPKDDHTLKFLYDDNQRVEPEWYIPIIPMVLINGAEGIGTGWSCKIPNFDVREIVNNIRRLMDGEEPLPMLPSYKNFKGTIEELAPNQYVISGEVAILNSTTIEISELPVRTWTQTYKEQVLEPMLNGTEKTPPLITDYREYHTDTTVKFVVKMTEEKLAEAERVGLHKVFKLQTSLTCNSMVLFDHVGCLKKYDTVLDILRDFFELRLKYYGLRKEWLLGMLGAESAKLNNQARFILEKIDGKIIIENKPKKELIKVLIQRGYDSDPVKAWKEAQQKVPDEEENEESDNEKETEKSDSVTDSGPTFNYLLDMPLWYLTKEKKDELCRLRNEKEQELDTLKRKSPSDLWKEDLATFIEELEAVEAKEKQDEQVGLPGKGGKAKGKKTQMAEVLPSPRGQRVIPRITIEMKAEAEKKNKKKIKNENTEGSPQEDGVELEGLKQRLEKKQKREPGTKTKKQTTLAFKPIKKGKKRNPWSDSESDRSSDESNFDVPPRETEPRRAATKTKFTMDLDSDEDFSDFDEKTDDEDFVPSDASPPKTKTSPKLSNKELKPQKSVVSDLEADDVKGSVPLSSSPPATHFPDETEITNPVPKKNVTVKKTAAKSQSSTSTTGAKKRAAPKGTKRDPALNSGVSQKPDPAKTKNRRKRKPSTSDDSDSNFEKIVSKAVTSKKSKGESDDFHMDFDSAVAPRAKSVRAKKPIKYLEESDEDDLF
Protocol: In diesem von P. Arimondo (Anti-Cancer Drug Design 2000, 15 (6), 413-421) beschriebenen Assay wird kDNA mit humaner DNA-Topoisomerase II in Abwesenheit oder Gegenwart der Testverbindungen behandelt. Die Testung der erfindungsgemäßen Verbindung 1 erfolgte hierbei bei drei unterschiedlichen Konzentrationen (100, 31.6 und 10 µM). Zum Vergleich setzte man eine Positivkontrolle und die Referenzverbindungen m-Amsacrin (m-Amsa), Paclitaxel (Taxol) und Vincristine bei einer jeweiligen Konzentration von 100µM ein.
Zu 1µL vorgelegter Testsubstanz (20fach konzentriert in 100% DMSO) werden 2µL 10x Assay Puffer, 1µL kDNA (200ng), 0,5µL human Topoisomerase II (1unit) und 15,5µL H2O pipettiert und gemischt.
Die Reaktionsansätze werden in den auf 37°C vorgeheizten Heizblock gestellt und 10min bei 37°C inkubiert. Die Inkubation wird nach Zugabe von 4µL 5x Stop Puffer gestoppt und nachfolgend die Substanz mit CIA extrahiert. Danach werden 20µL des Überstandes auf ein 1 % Agarosegel mit 0,25µg/mL Ethidiumbromid aufgetragen und 1 h bei 100V aufgetrennt. Zum Schluss wird das Gel unter UV-Anregung fotografiert (s. Figur 1). Die Quantifizierung der Inhibierung der Decatenation von kDNA erfolgt mit der GelPro®Analyzer Software (s. Figur 2)

human Topoisomerase II = human Topoisomerase II (Homo sapiens, UniProt P11388); assay: pRYG relaxation assay for topoisomerase II activity; assay type: biochemical; settings: compound 1 at 100, 31.6 and 10 µM; reference compounds at 316 and 100 µM
Sequence of human Topoisomerase II (P11388 whole entry): as above
Protocol: Mit diesem Relaxationsassay konnte zusätzlich die inhibitorische Eigenschaft der erfindungsgemäßen Verbindungen auf Topoisomerase II gezeigt werden. Die Testung der erfindungsgemäßen Verbindung 1 erfolgte hierbei bei drei unterschiedlichen Konzentrationen (100, 31.6 und 10 µM). Zum Vergleich setzte man die Referenzverbindungen m-Amsacrin, Paclitaxel (Taxol) und Vincristine bei Konzentrationen von 316 und 100µM ein.
Zu 1µL vorgelegter Testsubstanz (20fach konzentriert in 100% DMSO) werden 2µL 10x Assay Puffer, 0,5µL pRYG DNA (125ng), 0,5µL human Topoisomerase II (1 unit) und 16µL H2O pipettiert und gemischt. Die Reaktionsansätze werden in den auf 37°C vorgeheizten Heizblock gestellt und 30min bei 37°C inkubiert. Die Inkubation wird nach Zugabe von 4µL 5x Stop Puffer abgestoppt. Danach werden 10µL des Ansatzes auf ein 1,2% Agarosegel mit 0,25µg/mL Ethidiumbromid aufgetragen und 2,5h bei 100V aufgetrennt. Zum Schluß wird das Gel unter UV Anregung fotografiert (s. Figur 3). Die Quantifizierung der Inhibierung der pRYG Relaxation erfolgt mit der GelPro®Analyzer Software (s. Figur 4).

Rindertubulin = assay: Inhibition of tubulin polymerisation in vitro; assay type: biochemical, Rind
From the text: Die Substanzen 1, 4, 9, 11, 12, 13 und 15 wurden in einem in-vitro Test auf Hemmung der Polymerisation von Rindertubulin getestet (D.M. Bollag et al. Cancer Res. 1995, 55, 2325-2333). In diesem Test wird durch Zyklen von Polymerisation und Depolymerisation aufgereinigtes Tubulin eingesetzt, welches durch Zugabe von GTP und Erwärmung zur Polymerisation gebracht wird. In Tabelle 3 sind die EC50 Werte der Polymerisationshemmung von Tubulin mit 30% assoziierten Proteinen (MAPs) angegeben.

[3] = assay type: physicochemical; settings: water, at most 1 % DMSO added
From the text: Die Bestimmung der Sättigungslöslichkeit in Wasser für die Verbindungen 1, 2, 10 und 14 erfolgte wie nachfolgend beschrieben. Zum Anlösen der Substanzen und um die Benetzung der Proben zu verbessern, wurde maximal 1 % DMSO zugesetzt. Zur Überprüfung des Gehaltes wurde eine HPLC-UV-Methode angewandt. Die Ergebnisse sind in der nachfolgenden Tabelle 5 zusammengefasst: Tabelle 5: […]

U-937 Zelllinie = assay: CDD plus nucleosome ELISA test (apoptosis detection); assay type: cell-based; settings: U-937, 1nM-10µM, 24 h treatment; for Nucleosomen im Zelllysat: cell lysate; for Nucleosomen im Zellkulturüberstand: culture supernatant
From the text: Die Kernfragmentierung ist eine Spätfolge apoptotischer Prozesse. Die dabei zu beobachtenden Veränderungen lassen sich auf durch Endonukleasen gespaltene DNA-Stränge und daraus resultierende Fragmentierung in Nucleosomen Partikel zurückführen.
Zum Nachweis der Nucleosomen Partikel wurde der von der Firma Roche Molecular Biochemicals beschriebene CDD^plus Nucleosomen ELISA Test eingesetzt. Hierzu untersuchte man die Verbindungen 1 und 2 an der U-937 Zelllinie bei unterschiedlichen Konzentrationen (1nM-10µM, 24 h Behandlung). (s. Figur 5 und Figur 6)

Mamma, MAXF857 = assay type: in vivo, Mäuse; settings: 80 mg/kg p.o.
From the text: Die in vivo Aktivität und Verträglichkeit der erfindungsgemäßen Verbindung 2 wurde im Vergleich zu der Substanz 10 in einem weiteren humanen Xenograft-Modell (Mamma, MAXF857) überprüft. Die Ergebnisse werden in der nächsten Tabelle gezeigt: Effect of 2 and 10 on the Mammary Cancer MAXF857 Tabelle 7: […]

[4] = tested on: humane Cervixkarzinom Zelllinie KB/HeLa (ATCC CCL17); assay: XTT proliferation assay (cytotoxicity test), KB/HeLa; assay type: cell-based; settings: Homo sapiens, read-out: XTT Proliferationsassay, EC50
From the text: as §1, with “503473).” for “503473). Tabelle 1:”

murine L1210 = assay: XTT proliferation assay, L1210 wild type; assay type: cell-based; settings: Mus musculus, L1210, read-out: XTT Proliferationsassay, EC50
From the text: as §1, §2, §3

[5] = tested on: ovariale Adenokarzinomzelllinie SKOV-3 (ATCC HTB77); assay: XTT proliferation assay (cytotoxicity test), SKOV-3; assay type: cell-based; settings: Homo sapiens, SK-OV-3; SKOV3; read-out: XTT Proliferationsassay, EC50
From the text: as §1, with “503473).” for “503473). Tabelle 1:”

[6] = tested on: akute myeloische Leukaemie Zelllinie LT12; assay: XTT proliferation assay, LT12 wild type; assay type: cell-based; settings: Rattus norvegicus, LT12, read-out: XTT Proliferationsassay, EC50
From the text: as §1, §2, §3

Melanom, MEXF462 = assay type: in vivo, Mäuse; settings: 80 mg/kg p.o.; day 18
From the text: Die in vivo Aktivität und Verträglichkeit der erfindungsgemäßen Verbindung 2 wurde im Vergleich zu den Substanzen 10 und 14 in einem humanen Xenograft-Modell (Melanom, MEXF462) überprüft. Die Ergebnisse sind in der nachfolgenden Tabelle 6 zusammengefasst: in vivo Aktivitäten von Verbindung 2, 10 and 14 (Melanom; MEXF462) Tabelle 6: […]

[7] = tested on: murine P388 Zelllinie (methyl-cholanthreneinduced lymphoid neoplasm); assay: XTT proliferation assay, P388 wild type; assay type: cell-based; settings: Mus musculus, P388, read-out: XTT Proliferationsassay, EC50
From the text: as §1, §2, §3

[8] = tested on: Lungenkarzinom Zelllinie NCI-H460 (NCI 503473); assay: XTT proliferation assay (cytotoxicity test), NCI-H460; assay type: cell-based; settings: Homo sapiens, NCl-H460, read-out: XTT Proliferationsassay, EC50
From the text: as §1, with “503473).” for “503473). Tabelle 1:”

[9] = tested on: humane Glioblastom Zelllinie SF-268 (NCI 503138); assay: XTT proliferation assay (cytotoxicity test), SF-268; assay type: cell-based; settings: Homo sapiens, read-out: XTT Proliferationsassay, EC50
From the text: as §1, with “503473).” for “503473). Tabelle 1:”

With `O=C(Nc1cnc2nccnc2c1)C(=O)c1cn(Cc2ccc(Cl)cc2)c2ccccc12` [Verbindung 1, 2-[1-(4-Chlor-benzyl)-1H-indol-3-yl]-2-oxo-N-pyrido[2,3-b]pyrazin-7-yl-acetamid] the EC50 (KB/HeLa Zellen; KB/HeLa cells, 0.1-1000 nM, 24 h at 37°C) was 25.2 nM, the EC50 (LT12/mdr; LT12, LT12mdr, read-out: XTT Proliferationsassay, EC50) was 0.017 µg/mL (≈ 0.0385 µM) and the EC50 ([1]; P388, P388ADR, read-out: XTT Proliferationsassay, EC50) was 0.019 µg/mL (≈ 0.043 µM). For the same compound, the EC50 (L1210VCR; L1210, L1210VCR, read-out: XTT Proliferationsassay, EC50) was 0.021 µg/mL (≈ 0.0475 µM), the “Hemmung der Topoisomerase II (Inhibierung der Decatenation von kDNA)” value [2] was “signifikante Hemmung” and the “Hemmung der Topoisomerase II (Inhibierung der pRYG Relaxation)” value (human Topoisomerase II) was “signifikante Hemmung”. The “Hemmung der Tubulin-Polymerisation, EC50” value (Rindertubulin; tubulin with 30% associated proteins (MAPs), mean of two independent experiments) was 0.71 µg/mL, the “Hemmwirkung auf die Polymerisation von Tubulin” value (Rindertubulin; verbal summary of Table 3) was “sehr potente Hemmwirkung” and the “Sättigungslöslichkeit in Wasser” value [3] was 25.0 µg/mL. For the same compound, the “Nucleosomen im Zelllysat” value (U-937 Zelllinie) was “konzentrationsabhängiger Anstieg” and the “Nucleosomen im Zellkulturüberstand” value (U-937 Zelllinie) was “kein signifikanter Anstieg”.
For `CC(=O)N(C(=O)C(=O)c1cn(Cc2ccc(Cl)cc2)c2ccccc12)c1ccc2ncccc2c1` [Verbindung 2, N-{2-[1-(4-Chlor-benzyl)-1H-indol-3-yl]-2-oxo-acetyl}-N-chinolin-6-yl-acetamid], the “Optimale T/C % (Tag)” value (Mamma, MAXF857; day 10) was 9.6% (10), the Todesfällen (Mamma, MAXF857; dead animals / total) was 0/6 Mäuse and the EC50 (KB/HeLa Zellen; HeLa, 24 h) was 125 nM. The EC50 (LT12/mdr; LT12, read-out: XTT Proliferationsassay, EC50) was 0.272 µg/mL (≈ 0.564 µM), the EC50 ([1]; P388, read-out: XTT Proliferationsassay, EC50) was 0.215 µg/mL (≈ 0.446 µM) and the EC50 [4] was 0.202 µg/mL (≈ 0.419 µM). The EC50 (murine L1210) was 0.206 µg/mL (≈ 0.427 µM), the EC50 (L1210VCR; L1210, read-out: XTT Proliferationsassay, EC50) was 0.558 µg/mL (≈ 1.16 µM) and the EC50 [5] was 0.123 µg/mL (≈ 0.255 µM). For the same compound, the EC50 [6] was 0.225 µg/mL (≈ 0.467 µM), the “Optimale T/C % (Tag)” value (Melanom, MEXF462) was 0.0% and the EC50 [7] was 0.224 µg/mL (≈ 0.465 µM). For the same compound, the “Sättigungslöslichkeit in Wasser” value [3] was 28.5 µg/mL, the EC50 [8] was 0.168 µg/mL (≈ 0.349 µM) and the EC50 [9] was 0.166 µg/mL (≈ 0.344 µM). For the same compound, the “Nucleosomen im Zelllysat” value (U-937 Zelllinie) was “konzentrationsabhängiger Anstieg” and the “Nucleosomen im Zellkulturüberstand” value (U-937 Zelllinie) was “kein signifikanter Anstieg”.
